# According to ChEMBL document CHEMBL3885881, “DrugMatrix”:
# Organism: Rattus norvegicus
# Experiment: DrugMatrix - Regimen: Daily Repeat
# Assay type: toxicity, organism-based, Sprague-Dawley
# Parameters: regimen Daily Repeat, gender Male, age 6-8 weeks
# Settings: in vivo, po, route oral GAVAGE, […]; for TOTAL BILIRUBIN / TOTAL PROTEIN / URIC ACID / ALANINE AMINOTRANSFERASE / ALBUMIN / ALKALINE PHOSPHATASE / ASPARTATE AMINOTRANSFERASE / BLOOD UREA NITROGEN / CARBON DIOXIDE / CHLORIDE / CHOLESTEROL / CREATINE PHOSPHOKINASE / CREATININE / GLUCOSE / LACTATE DEHYDROGENASE / LIPASE / PHOSPHORUS / POTASSIUM / SODIUM: tissue Plasma; for ABSOLUTE BASOPHIL / ABSOLUTE EOSINOPHIL / ABSOLUTE LYMPHOCYTE / ABSOLUTE MONOCYTE / ABSOLUTE SEGMENTED NEUTROPHIL / BASOPHIL / EOSINOPHIL / ERYTHROCYTE COUNT / HEMATOCRIT / HEMOGLOBIN / LEUKOCYTE COUNT / LYMPHOCYTE / MEAN CORPUSCULAR HEMOGLOBIN / MEAN CORPUSCULAR HEMOGLOBIN CONCENTRATION / MEAN CORPUSCULAR VOLUME / MONOCYTE / NEUTROPHIL / NUCLEATED RED BLOOD CELLS / PLATELET COUNT: tissue Blood
# [1] = 52 mg/kg, 120 h, dose level Low, time 5 day
# [2] = 89 mg/kg, 72 h, dose level M1, time 3 day
# [3] = 89 mg/kg, 120 h, dose level M1, time 5 day
structure (smiles),measurement,setting,value
Clc1ccccc1C(c1ccccc1)(c1ccccc1)n1ccnc1 [CLOTRIMAZOLE],TOTAL BILIRUBIN,[1],0.1 mg/dL
same,TOTAL PROTEIN,[1],6.03 G/DL
same,URIC ACID,[1],0.63 mg/dL
same,ABSOLUTE BASOPHIL,[2],0 CELLS/uL
same,ABSOLUTE EOSINOPHIL,[2],25.67 CELLS/uL
same,ABSOLUTE LYMPHOCYTE,[2],8596 CELLS/uL
same,ABSOLUTE MONOCYTE,[2],0 CELLS/uL
same,ABSOLUTE SEGMENTED NEUTROPHIL,[2],345 CELLS/uL
same,BASOPHIL,[2],0%
same,EOSINOPHIL,[2],0.33%
same,ERYTHROCYTE COUNT,[2],5.65 x10E6/uL
same,HEMATOCRIT,[2],35.6%
same,HEMOGLOBIN,[2],13.1 G/DL
same,LEUKOCYTE COUNT,[2],8.97 x10E3/uL
same,LYMPHOCYTE,[2],95.33%
same,MEAN CORPUSCULAR HEMOGLOBIN,[2],23.17 pg
same,MEAN CORPUSCULAR HEMOGLOBIN CONCENTRATION,[2],36.8 G/DL
same,MEAN CORPUSCULAR VOLUME,[2],63.03 fL
same,MONOCYTE,[2],0%
same,NEUTROPHIL,[2],4.33%
same,NUCLEATED RED BLOOD CELLS,[2],0 /100WBC
same,PLATELET COUNT,[2],1000.33 x10E3/uL
same,ALANINE AMINOTRANSFERASE,[2],74.67 u/L
same,ALBUMIN,[2],3.87 G/DL
same,ALKALINE PHOSPHATASE,[2],348.33 u/L
same,ASPARTATE AMINOTRANSFERASE,[2],101.33 u/L
same,BLOOD UREA NITROGEN,[2],15.67 mg/dL
same,CARBON DIOXIDE,[2],31.33 mmol/L
same,CHLORIDE,[2],99.67 MEQ/L
same,CHOLESTEROL,[2],51 mg/dL
same,CREATINE PHOSPHOKINASE,[2],324.67 u/L
same,CREATININE,[2],0.17 mg/dL
same,GLUCOSE,[2],143.67 mg/dL
same,LACTATE DEHYDROGENASE,[2],156.33 u/L
same,LIPASE,[2],11 u/L
same,PHOSPHORUS,[2],10.37 mg/dL
same,POTASSIUM,[2],5.81 MEQ/L
same,SODIUM,[2],144 MEQ/L
same,TOTAL BILIRUBIN,[2],0.13 mg/dL
same,TOTAL PROTEIN,[2],5.63 G/DL
same,URIC ACID,[2],0.4 mg/dL
same,ABSOLUTE BASOPHIL,[3],0 CELLS/uL
same,ABSOLUTE EOSINOPHIL,[3],0 CELLS/uL
same,ABSOLUTE LYMPHOCYTE,[3],14137.33 CELLS/uL
same,ABSOLUTE MONOCYTE,[3],157.33 CELLS/uL
same,ABSOLUTE SEGMENTED NEUTROPHIL,[3],1305.33 CELLS/uL
same,BASOPHIL,[3],0%
same,EOSINOPHIL,[3],0%
same,ERYTHROCYTE COUNT,[3],5.79 x10E6/uL
same,HEMATOCRIT,[3],36.4%
same,HEMOGLOBIN,[3],13.37 G/DL
same,LEUKOCYTE COUNT,[3],15.6 x10E3/uL
same,LYMPHOCYTE,[3],91%
same,MEAN CORPUSCULAR HEMOGLOBIN,[3],23.1 pg
same,MEAN CORPUSCULAR HEMOGLOBIN CONCENTRATION,[3],36.73 G/DL
same,MEAN CORPUSCULAR VOLUME,[3],62.87 fL
same,MONOCYTE,[3],1%
same,NEUTROPHIL,[3],8%
same,NUCLEATED RED BLOOD CELLS,[3],0 /100WBC
same,PLATELET COUNT,[3],1140.67 x10E3/uL
same,ALANINE AMINOTRANSFERASE,[3],77.33 u/L
same,ALBUMIN,[3],4.17 G/DL
same,ALKALINE PHOSPHATASE,[3],461 u/L
same,ASPARTATE AMINOTRANSFERASE,[3],103 u/L
same,BLOOD UREA NITROGEN,[3],13.67 mg/dL
same,CARBON DIOXIDE,[3],23.67 mmol/L
same,CHLORIDE,[3],102 MEQ/L
same,CHOLESTEROL,[3],58 mg/dL
same,CREATINE PHOSPHOKINASE,[3],255 u/L
same,CREATININE,[3],0.13 mg/dL
same,GLUCOSE,[3],97.33 mg/dL
same,LACTATE DEHYDROGENASE,[3],293 u/L
same,LIPASE,[3],38.67 u/L
same,PHOSPHORUS,[3],9.33 mg/dL
same,POTASSIUM,[3],7.02 MEQ/L
same,SODIUM,[3],147.95 MEQ/L
same,TOTAL BILIRUBIN,[3],0.33 mg/dL
same,TOTAL PROTEIN,[3],6.23 G/DL
same,URIC ACID,[3],1.27 mg/dL
